# Experimental data reported in patent publication US8552002B2 (Novartis AG, priority 2004, dated 2013).
# Like-named read-outs stand apart in the source and are kept apart here.
# Columns and labels:
# Tek = target: T1, Tek (Homo sapiens, UniProt Q02763); assay: Recombinant GST-Tek (Tie-2) tyrosine kinase assay (33P into poly(Glu,Tyr)); format: biochemical; conditions: Examples 1 to 169
# T1 construct: amino acids 773-1124 of the cytoplasmic kinase domain of human Tek, N-terminally fused to GST; made in house; host or cells: Sf9 insect cells (baculovirus)
# In short: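 GST-fused human Tek kinase domain (aa 773-1124), baculovirus-expressed, 150 ng per reaction; 10 μg/mL poly(Glu,Tyr) 4:1, 4.0 μM [γ-33P]ATP, 3 mM MnCl2/3 mM MgCl2, pH 7.5, 30 min at ambient temperature. 33P uptake read on PVDF filters; IC50 by linear regression from four concentrations in duplicate.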
# FGFR3 (K650E) = target: T2, FGFR3 (K650E) (Homo sapiens, UniProt P22607, K650E); assay: Recombinant GST-FGFR-3-K650E tyrosine kinase assay (33P into poly(Glu,Tyr)); format: biochemical; conditions: read-out: FGFR3 (K650E) inhibition at 10 μM
# T2 construct: amino acids 411-806 of the cytoplasmic domain of human FGFR-3, N-terminally fused to GST; made in house; host or cells: Sf9 insect cells (baculovirus)
# KDR = target: T3, KDR (Homo sapiens, UniProt P35968); assay: Inhibitory activity against KDR (VEGF-R2), in vitro data of Examples 170 and 207; format: biochemical; conditions: read-out: KDR inhibition at 10 μM
# T3 construct: expressed in transfected cells; host or cells: CHO cells
# In short: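 KDR tyrosine phosphorylation detected by luminescence after overnight 4° C capture of 20 μg lysate protein with PY20:AP antibody. Lysates came from cells given compound for 2 h at 37° C, then final 20 ng/ml VEGF for 5 min; compound-free medium as control.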
# T1 sequence (Q02763 773-1124): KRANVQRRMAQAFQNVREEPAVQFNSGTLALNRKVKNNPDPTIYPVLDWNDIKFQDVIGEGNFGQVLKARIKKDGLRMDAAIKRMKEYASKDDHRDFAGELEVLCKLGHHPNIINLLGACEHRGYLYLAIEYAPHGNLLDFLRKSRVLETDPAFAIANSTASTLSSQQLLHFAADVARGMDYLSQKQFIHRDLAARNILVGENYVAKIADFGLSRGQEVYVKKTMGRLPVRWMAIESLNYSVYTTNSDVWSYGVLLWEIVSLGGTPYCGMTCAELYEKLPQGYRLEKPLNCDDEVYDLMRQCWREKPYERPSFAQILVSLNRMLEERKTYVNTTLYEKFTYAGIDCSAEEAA
# T3 sequence (P35968 20-1356): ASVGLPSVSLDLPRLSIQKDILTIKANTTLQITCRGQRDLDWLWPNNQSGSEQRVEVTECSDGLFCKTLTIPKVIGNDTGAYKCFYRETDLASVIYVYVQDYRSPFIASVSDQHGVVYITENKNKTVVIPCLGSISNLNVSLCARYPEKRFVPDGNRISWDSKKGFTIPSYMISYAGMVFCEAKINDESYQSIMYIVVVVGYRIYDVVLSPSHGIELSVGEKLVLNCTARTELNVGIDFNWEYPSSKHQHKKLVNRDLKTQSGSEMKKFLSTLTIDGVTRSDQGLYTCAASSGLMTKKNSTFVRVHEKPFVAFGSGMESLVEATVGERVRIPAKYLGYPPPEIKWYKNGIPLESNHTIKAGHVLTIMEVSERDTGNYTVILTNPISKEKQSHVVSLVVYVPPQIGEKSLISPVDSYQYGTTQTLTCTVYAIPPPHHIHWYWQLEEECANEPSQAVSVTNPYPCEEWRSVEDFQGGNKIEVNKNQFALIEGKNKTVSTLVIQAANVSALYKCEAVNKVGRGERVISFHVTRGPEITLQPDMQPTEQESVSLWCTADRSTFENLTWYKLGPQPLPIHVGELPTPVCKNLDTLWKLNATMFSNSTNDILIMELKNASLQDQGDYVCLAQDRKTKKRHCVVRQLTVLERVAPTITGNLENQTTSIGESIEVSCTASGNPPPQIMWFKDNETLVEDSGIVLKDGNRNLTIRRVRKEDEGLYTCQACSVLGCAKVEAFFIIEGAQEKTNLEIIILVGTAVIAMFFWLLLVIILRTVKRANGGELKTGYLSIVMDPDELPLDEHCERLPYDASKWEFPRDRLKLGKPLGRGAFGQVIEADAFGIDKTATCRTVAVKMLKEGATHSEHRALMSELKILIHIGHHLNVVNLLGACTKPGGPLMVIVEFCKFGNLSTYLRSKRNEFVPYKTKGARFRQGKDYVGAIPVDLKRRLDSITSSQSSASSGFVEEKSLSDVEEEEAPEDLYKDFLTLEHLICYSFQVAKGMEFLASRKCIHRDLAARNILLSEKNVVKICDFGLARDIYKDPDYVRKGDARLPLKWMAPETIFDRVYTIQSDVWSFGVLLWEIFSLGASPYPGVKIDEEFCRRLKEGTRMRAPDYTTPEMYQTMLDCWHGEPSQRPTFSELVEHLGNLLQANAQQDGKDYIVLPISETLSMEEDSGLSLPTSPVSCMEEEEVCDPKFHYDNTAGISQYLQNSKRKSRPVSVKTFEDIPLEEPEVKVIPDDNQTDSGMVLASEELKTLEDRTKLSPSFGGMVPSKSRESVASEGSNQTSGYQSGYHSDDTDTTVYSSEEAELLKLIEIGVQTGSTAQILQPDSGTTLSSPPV
# T2 sequence (P22607 411-806 K650E): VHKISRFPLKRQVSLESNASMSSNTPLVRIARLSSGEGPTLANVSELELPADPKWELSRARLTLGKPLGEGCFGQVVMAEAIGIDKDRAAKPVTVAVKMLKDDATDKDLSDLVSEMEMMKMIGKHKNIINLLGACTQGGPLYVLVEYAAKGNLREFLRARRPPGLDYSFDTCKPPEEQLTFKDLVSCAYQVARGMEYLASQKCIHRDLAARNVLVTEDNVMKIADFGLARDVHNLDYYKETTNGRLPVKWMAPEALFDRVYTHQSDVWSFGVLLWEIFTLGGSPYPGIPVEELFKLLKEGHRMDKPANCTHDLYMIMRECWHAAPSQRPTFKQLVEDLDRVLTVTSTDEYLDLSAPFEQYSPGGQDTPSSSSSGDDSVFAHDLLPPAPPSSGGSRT
melting point [°C],inhibition at 10 µM (Tek) [%],"inhibition at 10 µM (FGFR3 (K650E); 10 μM, Examples 1 to 169) [%]","inhibition at 10 µM (KDR; 10 μM, Examples 1 to 169) [%]",SMILES,inhibition at 10 µM (FGFR3 (K650E)) [%],inhibition at 10 µM (KDR) [%]
252 to 254,12 to 100,27 to 100,67 to 100,"CN1CCN(c2ccc(Nc3cc(NC(=O)Nc4cc(Cl)c(Cl)cc4Cl)ncn3)cc2)CC1 [Example 74, 1-{6-[4-(4-Methyl-piperazin-1-yl)-phenylamino]-pyrimidin-4-yl}-3-(2,4,5-trichloro-phenyl)-urea]",,
165 to 175,12 to 100,27 to 100,67 to 100,"CN1CCN(C(=O)c2ccc(Nc3cc(NC(=O)Nc4c(Cl)cc(Cl)cc4Cl)ncn3)cc2)CC1 [Example 85, 1-{6-[4-(4-Methyl-piperazin-1-carbonyl)-phenylamino]-pyrimidin-4-yl}-3-(2,4,6-trichloro-phenyl)-urea]",,
199 to 201,12 to 100,27 to 100,67 to 100,"Cc1cccc(Cl)c1NC(=O)Nc1cc(Nc2ccc(CN3CCN(C)CC3)cc2)ncn1 [Example 82, 1-(2-Chloro-6-methyl-phenyl)-3-{6-[4-(4-methyl-piperazin-1-ylmethyl)-phenylamino]-pyrimidin-4-yl}-urea]",,
260 to 262,12 to 100,27 to 100,67 to 100,"CN1CCN(c2ccc(Nc3cc(NC(=O)Nc4ccc(Cl)c(Cl)c4)ncn3)cc2)CC1 [Example 75, 1-(3,4-Dichloro-phenyl)-3-{6-[4-(4-methyl-piperazin-1-yl)-phenylamino]-pyrimidin-4-yl}-urea]",,
183 to 185,12 to 100,27 to 100,67 to 100,"CN1CCC(COc2ccc(Nc3cc(NC(=O)Nc4c(Cl)cccc4Cl)ncn3)cc2)CC1 [Example 71, 1-(2,6-Dichloro-phenyl)-3-{6-[4-(1-methyl-piperidin-4-ylmethoxy)-phenylamino]-pyrimidin-4-yl}-urea]",,
280 to 282,12 to 100,27 to 100,67 to 100,"CN1CCN(c2ccc(N(C(=O)Nc3cccc(Cl)c3Cl)c3cc(N)ncn3)cc2)CC1 [Example 76, 1-(6-Amino-pyrimidin-4-yl}-3-(2,3-dichloro-phenyl)-1-[4-(4-methyl-piperazin-1-yl)-phenyl]-urea]",,
138 to 142,12 to 100,27 to 100,67 to 100,"CN1CCN(c2cccc(Nc3cc(NC(=O)Nc4c(Cl)cc(Cl)cc4Cl)ncn3)c2)CC1 [Example 86, 1-{6-[3-(4-Methyl-piperazin-1-yl)-phenylamino]-pyrimidin-4-yl}-3-(2,4,6-trichloro-phenyl)-urea]",,
209 to 211,12 to 100,27 to 100,67 to 100,"CN1CCN(c2ccc(Nc3cc(NC(=O)Nc4c(Cl)cc(Cl)cc4Cl)ncn3)cc2)CC1 [Example 73, 1-{6-[4-(4-Methyl-piperazin-1-yl)-phenylamino]-pyrimidin-4-yl}-3-(2,4,6-trichloro-phenyl)-urea]",,
194 to 196,12 to 100,27 to 100,67 to 100,"CN1CCN(Cc2ccc(Nc3cc(NC(=O)Nc4c(Cl)cc(Cl)cc4Cl)ncn3)cc2)CC1 [Example 84, 1-{6-[4-(4-Methyl-piperazin-1-ylmethyl)-phenylamino]-pyrimidin-4-yl}-3-(2,4,6-trichloro-phenyl)-urea]",,
199 to 201,12 to 100,27 to 100,67 to 100,"CN1CCN(Cc2ccc(Nc3cc(NC(=O)Nc4c(Cl)cccc4Cl)ncn3)cc2)CC1 [Example 83, 1-(2,6-Dichloro-Phenyl)-3-{6-[4-(4-methyl-piperazin-1-ylmethyl)-phenylamino]-pyrimidin-4-yl}-urea]",,
178 to 180,12 to 100,27 to 100,67 to 100,"Cc1cccc(Cl)c1NC(=O)Nc1cc(Nc2ccc(OCC3CCN(C)CC3)cc2)ncn1 [Example 70, 1-(2-Chloro-6-methyl-phenyl)-3-{6-[4-(1-methyl-piperidin-4-ylmethoxy)-phenylamino]-pyrimidin-4-yl}-urea]",,
161.5 to 163,12 to 100,,67 to 100,"COc1ccc(Cl)c(NC(=O)N(C)c2cc(Nc3ccc(N4CCN(C)CC4)cc3)ncn2)c1Cl [Example 1, 3-(2,6-Dichloro-3-methoxy-phenyl)-1-methyl-1-{6-[4-(4-methyl-piperazin-1-yl)-phenylamino]-pyrimidin-4-yl}-urea]",,
279 to 281,12 to 100,27 to 100,67 to 100,"CN1CCN(c2ccc(Nc3cc(NC(=O)Nc4cccc(Cl)c4Cl)ncn3)cc2)CC1 [Example 77, 1-(2,3-Dichloro-Phenyl)-3-{6-[4-(4-methyl-piperazin-1-yl)-phenylamino]-pyrimidin-4-yl}-urea]",,
223 to 225,12 to 100,27 to 100,67 to 100,"CN1CCN(c2ccc(Nc3cc(NC(=O)Nc4cc(Cl)ccc4Cl)ncn3)cc2)CC1 [Example 72, 1-(2,5-Dichloro-Phenyl)-3-{6-[4-(4-methyl-piperazin-1-yl)-phenylamino]-pyrimidin-4-yl}-urea]",,

# The next lines start with the compound.
SMILES,melting point [°C],inhibition at 10 µM (Tek) [%],"inhibition at 10 µM (FGFR3 (K650E); 10 μM, Examples 1 to 169) [%]","inhibition at 10 µM (KDR; 10 μM, Examples 1 to 169) [%]",inhibition at 10 µM (FGFR3 (K650E)) [%],inhibition at 10 µM (KDR) [%]
"O=C(Nc1cc(N[C@H]2CC[C@H](OC(=O)Nc3c(Cl)cccc3Cl)CC2)ncn1)Nc1c(Cl)cccc1Cl [Example 66, (2,6-dichloro-phenyl)-carbamic acid 4-{6-[3-(2,6-dichloro-phenyl)-ureido]-pyrimidin-4-ylamino}-cyclohexylester]",222 to 224,12 to 100,27 to 100,67 to 100,,
"CN1CCC(COc2cccc(Nc3cc(NC(=O)Nc4c(Cl)cc(Cl)cc4Cl)ncn3)c2)CC1 [Example 81, 1-{6-[3-(1-Methyl-piperidin-4-ylmethoxy)-phenylamino]-pyrimidin-4-yl}-3-(2,4,6-trichloro-phenyl)-urea]",222 to 225,12 to 100,27 to 100,67 to 100,,
"Cc1cccc(Cl)c1NC(=O)Nc1cc(NC(C)C)ncn1 [Example 65, 1-(2-Chloro-6-methyl-phenyl)-3-(6-isopropylamino-pyrimidin-4-yl)-urea]",233,12 to 100,27 to 100,67 to 100,,
"CN1CCC(COc2ccc(Nc3cc(NC(=O)Nc4c(Cl)cc(Cl)cc4Cl)ncn3)cc2)CC1 [Example 69, 1-{6-[4-(1-Methyl-piperidin-4-ylmethoxy)-phenylamino]-pyrimidin-4-yl}-3-(2,4,6-trichloro-phenyl)-urea]",189 to 191,12 to 100,27 to 100,67 to 100,,
"CC(C)(C)[Si](C)(C)O[C@H]1CC[C@H](Nc2cc(NC(=O)Nc3c(Cl)cccc3Cl)ncn2)CC1 [Example 91, 1-{6-[(trans)-4-(tert-Butyl-dimethyl-silanyloxy)-cyclohexylamino]-pyrimidin-4-yl}3-(2,6-dichloro-phenyl)-urea]",211 to 212,12 to 100,,,27 to 100,67 to 100
"CC(C)Nc1cc(NC(=O)Nc2c(Cl)cc(Cl)cc2Cl)ncn1 [Example 67, 1-(6-Isopropylamino-pyrimidin-4-yl)-3-(2,4,6-trichloro-phenyl)-urea]",218 to 220,12 to 100,27 to 100,67 to 100,,
"O=C(Nc1cc(N[C@H]2CC[C@H](O)CC2)ncn1)Nc1c(Cl)cc(Cl)cc1Cl [Example 88, 1-[6-((trans)-4-Hydroxy-cyclohexylamino)-pyrimidin-4-yl]-3-(2,4,6-trichloro-phenyl)-urea]",171 to 173,12 to 100,27 to 100,67 to 100,,
"Cc1cccc(Cl)c1NC(=O)Nc1cc(N[C@H]2CC[C@H](O[Si](C)(C)C(C)(C)C)CC2)ncn1 [Example 89, 1-{6-[(trans)-4-(tert-Butyl-dimethyl-silanyloxy)-cyclohexylamino]-pyrimidin-4-yl}-3-(2-chloro-6-methyl-phenyl)-urea]",218 to 220,12 to 100,,,27 to 100,67 to 100
"CN1CCC(COc2cccc(Nc3cc(NC(=O)Nc4c(Cl)cccc4Cl)ncn3)c2)CC1 [Example 80, 1-(2,6-Dichloro-Phenyl)-3-{6-[3-(1-methyl-piperidin-4-ylmethoxy)-phenylamino]-pyrimidin-4-yl}-urea]",198 to 200,12 to 100,27 to 100,67 to 100,,
"Cc1cccc(Cl)c1NC(=O)Nc1cc(N[C@H]2CC[C@H](O)CC2)ncn1 [Example 90, 1-(2-Chloro-6-methyl-phenyl)-3-[6-((trans)-4-hydroxy-cyclohexylamino)-pyrimidin-4-yl]-urea]",149 to 152,12 to 100,27 to 100,67 to 100,,
